Laboratory results: publication PMC7961587, “Novel Cell Permeable Polymers of N-Substituted L-2,3-Diaminopropionic Acid (DAPEGs) and Cellular Consequences of Their Interactions with Nucleic Acids” (International Journal of Molecular Sciences, 2021)

Assays:
HB2 and MDA-MB-231 cells [1] = assay: Transfection with pmaxGFP plasmid and cytotoxicity of plasmid:compound complexes; assay type: cell-based, human; details: pmaxGFP:compound complex 4.62 × 10^−10 M
Text: Figure 10 (A) Fluorescence imaging of HB-2 and MDA-MB-231 cells transfected with pmaxGFP plasmid mixed with compounds 5, 13, 14, or the commercially available transfection reagent (control). (B) Cytotoxicity of plasmid pmaxGFP:compound complex in HB2 and MDA-MB-231 cells at the concentration of the complex equal to 4.62 × 10^−10 M.
In this experiment, second-generation compounds (compounds 5, 13, and 14) were used as transfection reagents. See transfection procedure in methodology below. After gene expression, the medium was removed and cells were lysed with 0.5 M NaOH (100 µL/well), and the fluorescence intensity was analyzed using a microplate reader at excitation and emission wavelengths of 488 and 510 nm, respectively.
In this experiment, second-generation (GO2)n compounds (compounds 5, 13, and 14) were used as transfection reagents. HB2 and MDA-MB-231 were seeded in 96-well plates at a density of 5 × 10^3/well and 7 × 10^3/well in complete medium and grown until 60–70% confluency. […] The DNA concentration was determined using UV readout at 260/280 nm. […] Results were observed by fluorescence microscopy.

HB2 and MDA-MB-231 cells [2] = assay: Cytotoxicity assay CCK-8; assay type: cell-based, human; details: CCK8, Figure S5; 1–100 µM; 2 h or 24 h
Experimental: Cell viability against cell-penetrating peptidomimetics was detected using the cell counting kit-8 (CCK-8) assay (Sigma Aldrich, Poznan, Poland). The HB2 and MDA-MB-231 cells were seeded into 96-well plates at a density of 5 × 10^3/well and 7 × 10^3/well, respectively, and incubated in complete medium (100 µL/well) for 48 h. Then, the medium was replaced with fresh medium (100 µL/well), and solutions of compounds at various concentrations (1, 5, 10, 20, 50, and 100 µM) were added; the cells were incubated for 2 h or 24 h. Cells incubated in media without any additives were used as control. After incubation, 10 µL/well of 2-(2-methoxy-4-nitrophenyl)-3-(4-nitrophenyl)-5-(2,4-disulfophenyl)-2H-tetrazolium, monosodium salt (WST-8) reagent was added according to the manufacturers’ instructions, and the mixture was incubated at 37 °C for 4 h. Cell viability was analyzed on the basis of formazan absorbance using a microplate reader (SPECTROstar Nano, BMG LABTECH, Ortenberg, Germany) at 450 nm.
Table 1S. Minimal charge to ratio (N/P) of each compoun d for efficient complexation with
DNA. *minimal N/P ratio resulting in effective complex formation based on EMSA. **ND ‐
No Sequence Minimal N/P ratio*
9 O2Oc‐[Dap(HO2)]6‐O2Oc‐NH2 No binding
Figure 5S. CCK8 cytotoxicity assay performed for three compounds (5, 13, and 14). Two
different cell lines were used: A) HB‐2 and B) MDA‐MB‐231 […]

Q: How did the Post-transfection cytotoxicity (HB2 and MDA-MB-231 cells [1]) turn out when `N=C(N)NCCOCCOCC(=O)NC[C@H](NC(=O)COCCOCCN)C(=O)N[C@@H](CNC(=O)COCCOCCNC(=N)N)C(=O)N[C@@H](CNC(=O)COCCOCCNC(=N)N)C(=O)N[C@@H](CNC(=O)COCCOCCNC(=N)N)C(=O)N[C@@H](CNC(=O)COCCOCCNC(=N)N)C(=O)N[C@@H](CNC(=O)COCCOCCNC(=N)N)C(=O)N[C@@H](CNC(=O)COCCOCCNC(=N)N)C(=O)N[C@@H](CNC(=O)COCCOCCNC(=N)N)C(=O)NCCOCCOCC(N)=O` [compound 14, O2Oc-[Dap(GO2)]8-O2Oc-NH2] was run?
A: 30%

Q: What about the “Cytotoxicity (CCK-8), in words” value (HB2 and MDA-MB-231 cells [2]) of the same molecule?
A: low cytotoxicity
